The results in this text go back to patent publication US10526287B2, “LSD1 inhibitors and uses thereof” (Constellation Pharmaceuticals, Inc., priority 2015, dated 2020).

For orientation: pIC50 means the negative decadic logarithm of the IC50, by convention in mol/L.

Each structure is given as a SMILES string. pIC50: −log10 of the molar value. Structures can show the parent of a compound that is named as a salt. Bounds are passed on as bounds.

The first test addresses LSD1 (Homo sapiens, UniProt O60341). The experiment in a line: Biochemical assay for LSD1 activity (LSD1 demethylase TR-FRET). Particulars: Table 5; biotinylated H3K4me1 peptide, 50 minutes at room temperature, TR-FRET; read-out: LSD1_Pep_TR-FRET_1.0 (IC50 T50).
As for `O=C(O)c1ccc(CN2CCC(CNC3CC3/C=C/c3ccccc3)CC2)cc1` (stereo not drawn) [Compound 101, (E)-4-((4-(((2-styrylcyclopropypamino)methyl)piperidin-1-yl)methyl)benzoic Acid Dihydrochloride], the pIC50 was 6.00 to 7.00.
As for `CCS(=O)(=O)CCN1CCC(CNC2CC2/C=C/c2ccccc2)CC1` (stereo not drawn) [Compound 113], the negative-log IC50 (pIC50) was greater than 7.00.
As to `C(=C\C1CC1NCC1CCN(Cc2ccccc2)CC1)/c1ccccc1` (stereo not drawn) [Compound 106], the pIC50 was 6.00 to 7.00.

The test is the same for the next values; noted with them: Table 6; biotinylated H3K4me1 peptide, 50 minutes at room temperature, TR-FRET; read-out: LSD1_Pep_TR-FRET_1.0 (IC50 T50).
On to `C/C(=C\c1ccccc1)[C@@H]1C[C@H]1N[C@H]1CC[C@@H](NCC(C)(C)C(=O)O)CC1` (single isomer, unassigned) [Compound 149, 2,2-dimethyl-3-(((cis)-4-(((trans)-2-((E)-1-phenylprop-1-en-2-yl)cyclopropyl)amino)cyclohexyl)amino)propanoic acid bis(trifluoroacetic acid) salt], for which the pIC50 is greater than 7.00.
For `CC/C(=C\c1ccccc1)[C@@H]1C[C@H]1N[C@H]1CC[C@@H](NCC(C)(C)C#N)CC1` (single isomer, unassigned) [Compound 158, 2.2-dimethyl-3-(((cis)-4-(((trans)-2-((E)-1-phenylbut-1-en-2-yl)cyclopropyl)amino)cyclohexyl)amino)propanenitrile bis(trifluoroacetic acid salt)], the pIC50 is greater than 7.00.
Regarding `COCC/C(=C\c1ccccc1)[C@@H]1C[C@H]1N[C@H]1CC[C@H](NCC(C)(C)C(=O)O)CC1` (racemic) [Compound 184, 3-(((trans)-4-(((trans)-2-((E)-4-methoxy-1-phenylbut-1-en-2-yl)cyclopropyl)amino)cyclohexyl)amino)-2,2-dimethylpropanoic Acid bis(trifluoroacetic Acid) Salt], the negative logarithm of the IC50 (pIC50) is greater than 7.00.
On to `CC(=Cc1ccc(C#N)cc1)C1CC1N[C@H]1CC[C@H](N)CC1` (relative stereo) [Compound 132, 4-(2-(2-(((trans)-4-aminocyclohexyl)amino)cyclopropyl)prop-1-en-1-yl)benzonitrile Dihydrochloride], for which the negative-log IC50 (pIC50) was less than 5.00.
In the case of `C/C(=C\c1ccccc1)[C@@H]1C[C@H]1NC1CCN(CC(N)=O)CC1` (racemic) [Compound 196, 2-(4-(((trans)-2-((E)-1-phenylprop-1-en-2-yl)cyclopropyl)amino)piperidin-1-yl)acetamide Dihydrochloride], the negative logarithm of the IC50 (pIC50) is greater than 7.00.
Take `CC/C(=C\c1ccccc1)[C@@H]1C[C@H]1NC1CCC(NCc2cnn(CC(=O)O)c2)CC1` (mixture of isomers) [Compound 210, 2-(4-(((4-(((trans)-2-((E)-1-phenylbut-1-en-2-yl)cyclopropyl)amino)cyclohexyl)amino)methyl)-1H-pyrazol-1-yl)acetic Acid Dihydrochloride]: the negative logarithm of the IC50 (pIC50) is 6.00 to 7.00.
For `C/C(=C\c1ccccc1)[C@@H]1C[C@H]1N[C@H]1CC[C@@H](NCCCC(=O)O)CC1` (racemic) [Compound 165, 4-(((cis)-4-(((trans)-2-((E)-1-phenylprop-1-en-2-yl)cyclopropyl)amino)cyclohexyl)amino)butanoic Acid bis(trifluoroacetic Acid) Salt], the negative logarithm of the IC50 (pIC50) was greater than 7.00.
For the compound `CC/C(=C\c1ccccc1)[C@@H]1C[C@H]1N[C@H]1CC[C@H](NCCCC(=O)O)CC1` (relative stereo) [Compound 180, 4-(((trans)-4-(((trans)-2-((E)-1-phenylbut-1-en-2-yl)cyclopropyl)amino)cyclohexyl)amino)butanoic Acid bis(trifluoroacetic Acid) Salt], the negative-log IC50 (pIC50) is greater than 7.00.
Still for that read-out and setting: with `C/C(=C\c1ccccc1)[C@@H]1C[C@H]1NCC1CCN(CCC#N)CC1` (racemic) [Compound 135, 3-(4-((((trans)-2-((E)-1-phenylprop-1-en-2-yl)cyclopropyl)amino)methyl)piperidin-1-yl)propanenitrile dihydrochloride] the figure was greater than 7.00; with `CC/C(=C\c1ccccc1)[C@@H]1C[C@H]1N[C@H]1CC[C@@H](NCc2ccc(C(=O)O)cc2)CC1` (racemic) [Compound 176, 4-((((trans)-4-(((trans)-2-((E)-1-phenylbut-1-en-2-yl)cyclopropyl)amino)cyclohexyl)amino)methyl)benzoic Acid Dihydrochloride], greater than 7.00; with `C/C(=C\c1ccccc1)[C@@H]1C[C@H]1NC1CCN(CCOCC(=O)O)CC1` (racemic) [Compound 204, 2-(2-(4-(((trans)-2-((E)-1-phenylprop-1-en-2-yl)cyclopropyl)amino)piperidin-1-yl)ethoxy)acetic Acid Dihydrochloride], less than 5.00.
The same measure, in the same setting: with `C/C(=C\c1ccccc1)[C@@H]1C[C@H]1N[C@H]1CC[C@@H](NCCC(N)=O)CC1` (single isomer, unassigned) [Compound 152, 3-(((cis)-4-(((trans)-2-((E)-1-phenylprop-1-en-2-yl)cyclopropyl)amino)cyclohexyl)amino)propanamide bis(trifluoroacetic acid) salt] the figure was greater than 7.00; with `COCC/C(=C\c1ccccc1)[C@@H]1C[C@H]1NC1CCC(NCc2ccc(C(=O)O)nc2)CC1` (mixture of isomers) [Compound 185, 5-((((trans)-4-(((trans)-2-((E)-4-methoxy-1-phenylbut-1-en-2-yl)cyclopropyl)amino)cyclohexyl)amino)methyl)picolinic Acid bis(trifluoroacetic Acid) Salt], greater than 7.00; with `C/C(=C\c1ccccc1)[C@@H]1C[C@H]1NC1CCN(CCO)CC1` (racemic) [Compound 201, 2-(4-(((trans)-2-((E)-1-phenylprop-1-en-2-yl)cyclopropyl)amino)piperidin-1-yl)ethan-1-ol Dihydrochloride], greater than 7.00.
As to `CC/C(=C\c1ccccc1)[C@@H]1C[C@H]1NC1CCC(NCc2ccc(C(=O)O)nc2)CC1` (mixture of isomers) [Compound 224, 5-((((trans)-4-(((trans)-2-((E)-1-phenylbut-1-en-2-yl)cyclopropyl)amino)cyclohexyl)amino)methyl)picolinic acid], the pIC50 is greater than 7.00.

Still in this test, the particulars now being: Table 7; biotinylated H3K4me1 peptide, 50 minutes at room temperature, TR-FRET; read-out: LSD1_Pep_TR-FRET_1.0 (IC50 T50).
Consider `CC/C(=C\c1ccccc1)[C@@H]1C[C@H]1N[C@H]1CC[C@H](NCc2ccc(C(=O)O)nc2)CC1` (single isomer, unassigned) [Compound 260, 5-((((trans)-4-(((1R,2S or 1S,2R)-2-((E)-1-phenylbut-1-en-2-yl)cyclopropyl)amino)cyclohexyl)amino)methyl)picolinic acid bis trifluoroacetate], for which the negative-log IC50 (pIC50) is greater than 7.00.
Regarding `CC/C(=C\c1ccccc1)[C@@H]1C[C@H]1NCc1cnc(N)nc1` (racemic) [Compound 246, 5-((((trans)-2-((E)-1-phenylbut-1-en-2-yl)cyclopropyl)amino)methyl)pyrimidin-2-amine Hydrochloride], the pIC50 is greater than 7.00.
`CC/C(=C\c1ccccc1)[C@@H]1C[C@H]1NC[C@H]1C[C@H](N)C1` (racemic) [Compound 239]: the pIC50 is greater than 7.00.
Regarding `CC/C(=C\c1ccccc1)[C@@H]1C[C@H]1NC1CC2(C1)CN(Cc1ccc(C(=O)O)nc1)C2` (racemic) [Compound 231], the negative logarithm of the IC50 (pIC50) is greater than 7.00.
Take `CC/C(=C\c1ccccc1)[C@@H]1C[C@H]1NC1CC2(CCN(CCC(=O)O)CC2)C1` (racemic) [Compound 225, 3-(2-(((trans)-2-((E)-1-phenylbut-1-en-2-yl)cyclopropyl)amino)-7-azaspiro[3.5]nonan-7-yl)propanoic Acid Bis Trifluoroacetate]: the pIC50 is greater than 7.00.
The same measure, in the same setting: with `CC/C(=C\c1ccccc1)[C@@H]1C[C@H]1NC1CC2(CCN(Cc3ccc(C(=O)O)cc3)CC2)C1` (racemic) [Compound 227, 4-((2-(((trans)-2-((E)-1-phenylbut-1-en-2-yl)cyclopropyl)amino)-7-azaspiro[3.5]nonan-7-yl)methyl)benzoic acid dihydrochloride] the figure was greater than 7.00; with `CC/C(=C\c1ccccc1)[C@@H]1C[C@H]1NC[C@H]1CC[C@H](NCc2ccc(C(=O)O)cc2)CC1` (racemic) [Compound 245, 4-((((trans)-4-((((trans)-2-((E)-1-phenylbut-1-en-2-yl)cyclopropyl)amino)methyl)cyclohexyl)amino)methyl)benzoic Acid Bis Trifluoroacetate], greater than 7.00; with `CC/C(=C\c1ccccc1)[C@@H]1C[C@H]1NC1CC2(C1)CN(Cc1ccc(C(=O)O)nc1)C2` (single isomer, unassigned) [Compound 251], greater than 7.00.
Take `CC/C(=C\c1ccccc1)[C@@H]1C[C@H]1NCc1ccccc1CN` (racemic) [Compound 247, (trans)-N-(2-(aminomethyl)benzyl)-2-((E)-1-phenylbut-1-en-2-yl)cyclopropan-1-amine]: the negative logarithm of the IC50 (pIC50) is greater than 7.00.
On to `CC/C(=C\c1ccccc1)[C@@H]1C[C@H]1NC1CC2(CCN(CC(C)(C)C(=O)O)CC2)C1` (racemic) [Compound 228, 2,2-dimethyl-3-(2-(((trans)-2-(E)-1-phenylbut-1-en-2-yl)cyclopropyl)amino)-7-azaspiro[3.5]nonan-7-yl)propanoic Acid Bis Trifluoroacetate], for which the negative-log IC50 (pIC50) was greater than 7.00.
As to `CC/C(=C\c1ccccc1)[C@@H]1C[C@H]1NC1CC2(C1)CN(CCC(=O)O)C2` (single isomer, unassigned) [Compound 266, 3-(6-(((1R,2S or 1S,2R)-2-((E)-1-phenylbut-1-en-2-yl)cyclopropyl)amino)-2-azaspiro[3.3]heptan-2-yl)propanoic Acid (Single Stereoisomer)], the pIC50 is greater than 7.00.
As for `CC/C(=C\c1ccccc1)[C@@H]1C[C@H]1NC1CC2(C1)CN(Cc1ccc(C(=O)O)cc1)C2` (racemic) [Compound 226, 4-((6-(((trans)-2-((E)-1-phenylbut-en-2-yl)cyclopropyl)amino)-2-azaspiro[3.3]heptan-2-yl)methyl)benzoic acid bis trifluoroacetate], the pIC50 was greater than 7.00.
